This note sets out measurements from paper PMC10518340, “Secreted LRPAP1 binds and triggers IFNAR1 degradation to facilitate virus evasion from cellular innate immunity” (Signal Transduction and Targeted Therapy, 2023).

Experiment [1] has as its system IFNAR1. Briefly: IFNAR1 protein level, immunoblot, HEK-293T cells. The format is cell-based, human.
Experiment [2] relates to IFNAR1. In words: IFNAR1 protein level, HepAD38 cells, immunoblot. In kind it is cell-based. The following applies: siRNA or overexpression 48 h; LF 400 nM 24 h.
For another experiment, the system named is EV71. Briefly: EV71 infection of RD cells (viral RNA, titer, viral protein, CPE). Particulars: RD cells, 9 h; plasmid, recombinant protein or peptide pre-treatment; viral RNA / titer.
The subject of experiment [3] is type I IFN signaling pathway. Briefly: Interferon-stimulated gene (ISG) mRNA levels, RD cells. In kind it is cell-based. The following applies: excessive LRPAP1 expression.
Another experiment deals with HCoV-OC43. Briefly: HCoV-OC43 infection of RD cells (viral RNA, TCID50, CPE). The following applies: antibody 0.5 μg/ml; peptides 1 μM or rLRPAP1 200 nM pre-treatment 1 h, 72 h; siRNA 24 h then MOI 1, 72 h.
The subject of experiment [4] is IFNAR1. Briefly: IFNAR1 ubiquitination, immunoprecipitation, HEK-293T cells. The format is cell-based, human. Particulars: ubiquitin, LRPAP1 and IFNAR1 overexpressed. How it is done: (§1) The interaction of LRPAP1, LRP1 and IFNAR1 was examined by immunoprecipitation using a protocol described as followed. HEK293T cells were cultured at around 90% confluence in a 100 mm tissue culture dish. Cells were washed with 10 ml of PBS and harvested in 0.5 ml of ice-cold lysis buffer ([…], pH 7.4, 1% SDS, 1% NP-40) and Protease Cocktail (Roche) and PhoSTOP (Roche). The total extract was pre-cleared with 10 μg normal rabbit IgG (Cell signaling, 2729 S) and 20 μl of protein A/G plus-agarose (Santa Cruz Biotechnology) at 4 °C on a rotor for 1 h. After gently removed protein A/G agarose beads by centrifugation at 500 rcf for 2 min, 0.2 mg of total extract was immunoprecipitated with the indicated antibodies overnight at 4 °C on a rotor. Approximately 20 μl of protein A/G plus-agarose (Santa Cruz Biotechnology) was added at 4 °C for one hour. Then, the beads were washed three times with washing buffer (lysis buffer contained 0.1% NP-40). The pellet was suspended with 40 μl PBS and 10 μl of 5× SDS-PAGE loading buffer and the samples were boiled for 10 min.

The subject of another experiment is HSV-1. Briefly: HSV-1 infection of RD cells (viral DNA, TCID50, viral protein, CPE).
Another experiment relates to HBV. Briefly: HBV level in HepAD38 cells, immunoblot. In kind it is cell-based. Particulars: HepAD38, siRNA or overexpression 48 h.
Experiment [5] concerns extracellular domain of IFNAR1. In words: Pull-down / co-immunoprecipitation of LRPAP1 with IFNAR1. The format is binding. The following applies: HEK-293T cells ectopic-expressing LRPAP1 and IFNAR1; also mouse cerebrum. Here is the method:
as §1
The interaction of LRPAP1, LRP1 and IFNAR1 was examined by immunoprecipitation using a protocol described as followed. HEK293T cells were cultured at around 90% confluence in a 100 mm tissue culture dish. […]

The next experiment deals with 2A^pro. In words: MST binding to recombinant 2A protease (baits r2A and 2Am; MS and MST). Details: species or system EV71. The following applies: recombinant 2A^pro (r2A) and 2A^C110A (2Am) as baits. Here is the method:
(§2) The polyhistidine (His)-tag peptides, the recombinant 2A, the recombinant 2Am, and ECD-IFNAR1, were incubated with the RED-tris-NTA 2nd Generation dye (Cat#MO-L018, Nanotemper-Technologies) for 30 min, respectively. Then these fluorescently labeled peptides were mixed with the serial diluted ligands, including the scramble peptide, the commercial penetrating peptide (RV5), LRPAP1 peptides (RAPD1P1, RAPD1P2), or rLRPAP1 without His-tag, respectively. The mixtures were captured by Monolith^TM NT.115 Series capillaries (Cat# MO-K022). Capillaries were then subjected to Monolith NT for MST analysis. According to Monolith guidelines, signal-to-noise (S/N) ratios greater than 5.0 were indicated as the valid binding.
as §2, with “NT. For” for “NT for”, “According to Monolith guidelines, signal-to-noise (S/N) ratios greater than 5.0 were indicated as the valid binding.” left out

As for “LDL-receptor-related protein-associated protein 1 [LRPAP1]”, the “IFNAR1 level on simultaneous expression of LRPAP1 and 2A^pro” value with IFNAR1 [1] (co-expressed with 2A^pro) is “complete undetectability of IFNAR1 levels”. Also, the IFNAR1 level result with IFNAR1 [1] (transfected cells (ectopic expression or siRNA)) is on record as “decreasing IFNAR1 to a marginal detectable level”. Besides, the “IFNAR1 expression in HepAD38 cells” value in the experiment with IFNAR1 [2] is “decreased level of IFNAR1”. For the same substance, the EV71 infection result with EV71 is recorded as “strikingly promoted EV71 infection”. The “type I IFN signaling pathway” value in experiment [3] is “suppressing the type I IFN signaling pathway and the expression of downstream interferon-stimulated genes”. Further, the “HCoV-OC43 CPE” value in the experiment on HCoV-OC43 is reported as “more obvious cytopathic effects”. Moreover, the IFNAR1 ubiquitination result in the experiment with IFNAR1 [4] is “dramatically increased IFNAR1 ubiquitination”. Also, the “HSV-1 CPE” value with HSV-1 (peptides 1 μM or rLRPAP1 200 nM pre-treatment 1 h, 24 h) is listed as “more obvious cytopathic effect”. Besides, the “HSV-1 DNA replication” value with HSV-1 (pre-treated 1 h, MOI 10, 24 h, RT-qPCR) was “promoted the DNA replication of HSV-1”. Further, the HBV level result with HBV is “higher HBV loads”. Moreover, the “interaction of LRPAP1 and IFNAR1 (co-immunoprecipitation)” value in experiment [5] was “confirmed the interaction of LRPAP1 and IFNAR1”. In the experiment with 2A^pro, the “interaction with 2A^pro” value was “interacts with 2A^pro”.
